ChEMBL document CHEMBL3244359, “Aromatic hydroxylation of beta-adrenergic antagonists. 4- and 5-hydroxylation of 1-(isopropylamino)-3-[2-(allyloxy)phenoxy]-2-propanol (oxprenolol)” (J Med Chem, 1978)

How the values were obtained:
[1] = Drug excretion in Sprague-Dawley rat urine treated with oxprenolol at 20 mg/kg, ip after 24 hrs by GC-CIMS analysis; assay type: ADME, organism-based; parameters: dose 20 mg/kg, route intraperitoneal; details: in vivo
[2] = Retention time of the compound by gas chromatography; assay type: physicochemical
[3] = Drug excretion in Sprague-Dawley rat urine treated with oxprenolol at 20 mg/kg, ip after 24 hrs by GC-CIMS analysis in presence of beta-glucuronidase and CH2N2; assay type: ADME, organism-based; parameters: dose 20 mg/kg, route intraperitoneal; details: in vivo

Compound	Drug excretion [1]	Retention_time [2] [min]	Drug excretion [3]
C=CCOc1ccc(O)cc1OCC(O)CNC(C)C (centres undefined)	metabolite_detected	–	–
C=CCOc1ccccc1OCC(O)CNC(C)C.O=C(O)C(F)(F)F (centres undefined)	–	5.7	–
C=CCOc1cccc(OC)c1OCC(O)CNC(C)C.O=C(O)C(F)(F)F (centres undefined)	–	10.5	–
C=CCOc1cc(O)ccc1OCC(O)CNC(C)C (centres undefined)	metabolite_detected	–	–

Other lines, results leading:

Drug excretion [1]	Retention_time [2] [min]	Drug excretion [3]	Compound
–	11.8	metabolite_detected	C=CCOc1ccc(OC)cc1OCC(O)CNC(C)C.O=C(O)C(F)(F)F (centres undefined)
–	9.6	–	C=CCOc1c(OC)cccc1OCC(O)CNC(C)C.O=C(O)C(F)(F)F (centres undefined)
–	13.1	metabolite_detected	C=CCOc1cc(OC)ccc1OCC(O)CNC(C)C.O=C(O)C(F)(F)F (centres undefined)
